Assay results published in patent publication US8268888B2, “Therapy of malignant neoplasias” (priority 2005, dated 2012).
Like-named read-outs stand apart in the source and are kept apart here.

Experiments:
[1] = rat, in vivo; cited from earlier work
human tumor cells = assay: Internalisation (uptake) experiments in tumor cells; assay type: cell-based
Method: Uptake experiments were undertaken to evaluate the affinity of the proposed L-phenylalanine derivatives for the proposed human tumors, and to assess their therapeutic activity in vitro. All experiments were performed fourfold, simultaneously with 250000, 500000 and 10^6 freshly prepared human tumor cells, including human malignant glioma cells, pancreatic prostatic and breast cancer cells. Before experiments, subconfluent cells were trypsinized as described above. The suspension was mixed thoroughly, transferred to a 50-ml centrifuge tube (Falcon®, Becton Dickinson, USA). Cells were centrifuged for 5 min at 200×g; the resulting supernatant was removed and the pellet resuspended in serum-free Dulbecco's Mod Eagle medium and then transferred to Eppendorf tubes at concentrations of 10^6 cells/ml for the uptake investigations. Before incubation with the corresponding radiolabeled phenylalanine, the tumor cells were preincubated for 5 min in 500 μL medium at 37° C. in 1.5-ml Eppendorf centrifuge tubes. Aliquots of 30-50 μL (10^6−1.5×10^6 cpm) freshly prepared radiopharmaceutical were added and cells incubated at 37° C./5% CO2 for 1, 2, 5, 15, 30, 60, 90 and 120 min while shaking. Uptake was stopped with 500 μL ice-cold PBS (pH 7.4) and an additional 3-min in an ice bath, the cells were centrifuged for 2 min at 300×g, the supernatant removed and the pellet washed three time with ice-cold PBS. Cell pellets were counted for radioactivity together with 3 aliquots of standards on a Berthold LB951 counter. The percentage of binding of the radiopharmaceutical was calculated by the formula: (cpm cell pellet/mean cpm radioactive standards)×100. The results were expressed either as percent of the applied dose per 10^6 cells or as cpm/1000 cells for better comparison.

malignant cell lines = assay: Cell survival rate after treatment with 3/4-iodo-L-phenylalanine (cytotoxic/cytostatic effect); assay type: cell-based, human
Method: Five human glioma cell lines, one rat glioma cell line, two human prostate cancer cell lines, as well as one human breast cancer cell line, and a melanoma cell line were investigated. The human glioma cell lines Tx 3868 and T 5135 (from primary human glioblastoma multiforme), and the rat C6 glioma cells were provided by the Institute of Human Genetics, University of the Saarland (Homburg, Germany). The human high-grade glioma cells, designated as A1207, M059K and U373MG, the human prostate cancer cells PC3 and […], the pancreatic carcinoma cell line PanC1, the human breast cancer cell line MCF-07 (American Type Culture Collection, Rockville, Md.), and the pancreatic carcinoma cell line PaCa44 (established by Dr Bulow, Mainz, Germany) as well as the melanoma cell lines SK-MEL25 and A101D were purchased commercially or provided by the oncological research laboratory of the University Medical Center of Saarland (Homburg, Germany). […]
Human tumor cells grown on standard glass slides were fixed in 4% neutral buffered formalin and stained with the Giemsa method. The cell number was calculated in 10 consecutive high power fields (×40).

[2] = tested on: human Tx3868 glioblastoma cells; assay: Radiosensitizing effect: IPA combined with external irradiation in glioblastoma cells; assay type: cell-based; details: for radiosensitizer effect: concomitantly administered therapeutic radiation
Method: Five human glioma cell lines, one rat glioma cell line, two human prostate cancer cell lines, as well as one human breast cancer cell line, and a melanoma cell line were investigated. The human glioma cell lines Tx 3868 and T 5135 (from primary human glioblastoma multiforme), and the rat C6 glioma cells were provided by the Institute of Human Genetics, University of the Saarland (Homburg, Germany). The human high-grade glioma cells, designated as A1207, M059K and U373MG, the human prostate cancer cells PC3 and […], the pancreatic carcinoma cell line PanC1, the human breast cancer cell line MCF-07 (American Type Culture Collection, Rockville, Md.), and the pancreatic carcinoma cell line PaCa44 (established by Dr Bulow, Mainz, Germany) as well as the melanoma cell lines SK-MEL25 and A101D were purchased commercially or provided by the oncological research laboratory of the University Medical Center of Saarland (Homburg, Germany). Cells were cultivated in RPMI-1640 medium or in Dulbecco's modified Eagle medium (sodium pyruvate-free, supplemented with […] and pyridoxine), respectively, supplemented with 10% (v/v) heat-inactivated foetal calf serum (FCS), penicillin (50 U/ml), streptomycin (50 μg/ml), and insulin (50 μg/ml; PromoCell, Heidelberg, Germany). All cell lines were maintained in appropriate flasks in a humidified incubator (5% CO2) at 37° C. Before the experiment, subconfluent cell cultures were trypsinized with a solution of 0.05% trypsin containing 0.02% EDTA but without Ca^2+ and Mg^2+, and resuspended in fresh medium to various cell concentrations after counting by vital staining on a hemocytometer, depending upon the study. Cells were free of mycoplasms. Viability of the cells was >95%.
Evaluation of the cell survival rate after treatment with 3/4-iodo-L-phenylalanine. After development of a confluent lawn of cells, the cultures were exposed to 0.1-5 μmol/ml of the corresponding pharmaceutical for up to 48 hours at 37° C./5% CO2. In a parallel experiment, cells were irradiated using a 6-MeV linear accelerator with doses from 2 to 15 Gy or treated with IPA-131 for comparison of cell survival rate. In order to be able to observe the morphology of the glioma cells, the cells were grown on standard glass slides or in standard culture dishes. Then the medium was removed and the cells were fixed either in 70% ethanol for at least 30 min on ice for flow-cytometric analyses after staining or in 4% neutral buffered formalin for immunohistopathological analyse.

[3] = rats, cited from earlier work
[4] = Acute toxicity (LD50/LD10) in rats; details: i.p. injection
[5] = tested on: human A1207 and T3868 glioblastoma xenografts; assay: Intracranial human glioma model in RNU rats (survival); assay type: in vivo; details: daily in first week then weekly, n=9
Method: An in vivo experiment was carried out in an intracranial human glioma model in RNU rats to assess the therapeutic effectiveness of 4-Iodo-L-phenylalanine (IPA) in glioma.
Primary human A1207 and T3868 glioblastoma cells (0.5×10^6 cells) were stereotaxically implanted into the right frontal region of RNU rats (2 mm posterior and 2 mm lateral to the intersection of the sagittal and bregma sutures to a depth of 5 mm) while under chloralhydrate anesthesia. The craniectomy was resealed with bone wax and the scalp closed.
IPA (1 and 5 mg/kg b.w.) was administrated i.p. in rats bearing human glioblastoma xenografts (n=9 in each group), starting at day 1 after stereotaxic implantation.
IPA was administrated daily in the first week after implantation and weekly afterwards. Another six RNU rats were treated with saline and served as control.
Then the following parameters were compared: median survival time, tumor size and histology after biopsy.

malignant gliomas = details: cited from earlier work

For N[C@@H](Cc1ccc(Cl)cc1)C(=O)O (racemic) [p-chloro-phenylalanine], the “effect on growth of developing rats” value [1] is listed as “interferes with the growth of developing rats”.
In the case of N[C@@H](Cc1ccccc1I)C(=O)O [2-iodo-L-phenylalanine, reference compound], the “uptake in neoplastic cells” value (human tumor cells; compared with IPA and IMA) is reported as “low uptake” and the “cytotoxicity in neoplastic cells” value (malignant cell lines; compared with IPA and IMA) is reported as “moderate cytotoxity”.
For N[C@@H](Cc1cccc(I)c1)C(=O)O [3-iodo-L-phenylalanine], the radiosensitizer effect [2] was “significant intrinsic radiosensitizer effect”.
For N[C@@H](Cc1ccc(I)cc1)C(=O)O [IPA, 4-iodo-L-phenylalanine], the LD50 ([3]; route not stated) is listed as greater than 100 mg/kg, the “uptake in human tumor cells” value (human tumor cells; quantified with 4-[123I]iodo-L-phenylalanine, up to 120 min, FIGS. 1-3) is listed as “high uptake” and the “concentration up to which transport capacity did not show saturation” value (human tumor cells; tumor cells) is listed as greater than 200 µmol/L. The LD10 [4] was greater than 27 mg/kg, the induction of necrosis/apoptosis ([2]; 0.3 μmol/ml IPA with 10 Gy external radiation, FIG. 7b) was “increased induction of necrosis and additional induction of apoptosis” and the radiosensitizer effect [2] was “significant intrinsic radiosensitizer effect”. The “cell survival rate on combining with external irradiation” value ([2]; glioma cells, FIGS. 4-6) was “dramatic reduction of cell survival rate”, the “cytostatic effect on primary human glioblastoma cells” value (malignant cell lines; FIG. 4, compared with external irradiation) was “concentration dependent and more pronounced as compared to external irradiation up to 15 Gy” and the “rats still alive at day 28” value ([5]; IPA 1 mg/kg i.p.) was “six out of nine”. The “rats still alive at day 28” value ([5]; IPA 5 mg/kg i.p.) was “seven out of nine”.
In the case of N[C@@H](Cc1ccc([123I])cc1)C(=O)O [IPA-123, 4-[^123I]iodo-L-phenylalanine], the blood-brain barrier passage (malignant gliomas; after intravenous administration) is given as “crosses” and the “enrichment in certain tumors (factor)” value (malignant gliomas; certain tumors) is given as no less than 20.
For N[C@@H](Cc1ccccc1)C(=O)O [L-phenylalanine, reference compound], the LD50 ([3]; i.p. injection, according to the manufacturer) is given as 5280 mg/kg.
